PubChem BioAssay AID1259407 (Chemical Carcinogenesis Research Information System (CCRIS), 2018)
Active and inactive are the calls of the source. No rule for the calls is given here.

Test system: CCRIS mutagenicity, Ames/micronucleus/aberration tests
Assay: CCRIS mutagenicity studies
[1] = Test System: AMES SALMONELLA TYPHIMURIUM, Strain/Indicator: TA98, Metabolic Activation: NONE, Method: PREINCUBATION
[2] = Test System: AMES SALMONELLA TYPHIMURIUM, Strain/Indicator: TA100, Metabolic Activation: NONE, Method: PREINCUBATION
[3] = Test System: AMES SALMONELLA TYPHIMURIUM, Strain/Indicator: TA102, Metabolic Activation: NONE, Method: PREINCUBATION
[4] = Test System: AMES SALMONELLA TYPHIMURIUM, Strain/Indicator: TA98, Metabolic Activation: NONE, Method: STANDARD PLATE
[5] = Test System: AMES SALMONELLA TYPHIMURIUM, Strain/Indicator: TA100, Metabolic Activation: NONE, Method: STANDARD PLATE
[6] = Test System: AMES SALMONELLA TYPHIMURIUM, Strain/Indicator: TA1535, Metabolic Activation: NONE, Method: STANDARD PLATE
[7] = Test System: AMES SALMONELLA TYPHIMURIUM, Strain/Indicator: TA1537, Metabolic Activation: NONE, Method: STANDARD PLATE

SMILES: N[C@@H](CSC(F)(F)C(F)F)C(=O)O
- mutagenic call (Test System: AMES SALMONELLA TYPHIMURIUM, Strain/Indicator: TA100, Metabolic Activation: RAT, KIDNEY, S-9, AROCLOR 1254, Method: STANDARD PLATE): inactive; negative
- mutagenic call (Test System: AMES SALMONELLA TYPHIMURIUM, Strain/Indicator: TA2638, Metabolic Activation: NONE, Method: PREINCUBATION): inactive; negative

SMILES: CN(C)Cc1ccccc1
- mutagenic call [1]: inactive; negative
- mutagenic call (Test System: AMES SALMONELLA TYPHIMURIUM, Strain/Indicator: TA98, Metabolic Activation: RAT, LIVER, S-9, PCB, Method: PREINCUBATION): inactive; negative
- mutagenic call [2]: inactive; negative
- mutagenic call (Test System: AMES SALMONELLA TYPHIMURIUM, Strain/Indicator: TA100, Metabolic Activation: RAT, LIVER, S-9, PCB, Method: PREINCUBATION): inactive; negative

SMILES: O=C(Cl)c1ccc(Cl)cc1
- mutagenic call [1]: inactive; negative
- mutagenic call (Test System: AMES SALMONELLA TYPHIMURIUM, Strain/Indicator: TA98, Metabolic Activation: RAT LIVER S-9, PHENOBARBITAL AND BETA-NAPHTHOFLAVONE, Method: PREINCUBATION): inactive; negative
- mutagenic call [2]: inactive; negative
- mutagenic call (Test System: AMES SALMONELLA TYPHIMURIUM, Strain/Indicator: TA100, Metabolic Activation: RAT LIVER S-9, PHENOBARBITAL AND BETA-NAPHTHOFLAVONE, Method: PREINCUBATION): inactive; negative
- mutagenic call [3]: inactive; negative
- mutagenic call (Test System: AMES SALMONELLA TYPHIMURIUM, Strain/Indicator: TA102, Metabolic Activation: RAT LIVER S-9, PHENOBARBITAL AND BETA-NAPHTHOFLAVONE, Method: PREINCUBATION): inactive; negative
- mutagenic call (Test System: AMES SALMONELLA TYPHIMURIUM, Strain/Indicator: TA104, Metabolic Activation: NONE, Method: PREINCUBATION): inactive; negative
- mutagenic call (Test System: AMES SALMONELLA TYPHIMURIUM, Strain/Indicator: TA104, Metabolic Activation: RAT LIVER S-9, PHENOBARBITAL AND BETA-NAPHTHOFLAVONE, Method: PREINCUBATION): inactive; negative
- mutagenic call (Test System: AMES SALMONELLA TYPHIMURIUM, Strain/Indicator: TA1535, Metabolic Activation: NONE, Method: PREINCUBATION): inactive; negative
- mutagenic call (Test System: AMES SALMONELLA TYPHIMURIUM, Strain/Indicator: TA1535, Metabolic Activation: RAT LIVER S-9, PHENOBARBITAL AND BETA-NAPHTHOFLAVONE, Method: PREINCUBATION): inactive; negative
- mutagenic call (Test System: AMES SALMONELLA TYPHIMURIUM, Strain/Indicator: TA1537, Metabolic Activation: NONE, Method: PREINCUBATION): inactive; negative
- mutagenic call (Test System: AMES SALMONELLA TYPHIMURIUM, Strain/Indicator: TA1537, Metabolic Activation: RAT LIVER S-9, PHENOBARBITAL AND BETA-NAPHTHOFLAVONE, Method: PREINCUBATION): inactive; negative
- mutagenic call (Test System: E.COLI, Strain/Indicator: WP2UVRA/PKM101, Metabolic Activation: NONE, Method: PREINCUBATION): inactive; negative
- mutagenic call (Test System: E.COLI, Strain/Indicator: WP2UVRA/PKM101, Metabolic Activation: RAT LIVER S-9, PHENOBARBITAL AND BETA-NAPHTHOFLAVONE, Method: PREINCUBATION): inactive; negative
- mutagenic call (Test System: E.COLI, Strain/Indicator: WP2UVRA, Metabolic Activation: NONE, Method: PREINCUBATION): inactive; negative
- mutagenic call (Test System: E.COLI, Strain/Indicator: WP2UVRA, Metabolic Activation: RAT LIVER S-9, PHENOBARBITAL AND BETA-NAPHTHOFLAVONE, Method: PREINCUBATION): inactive; negative

SMILES: CC(=C/C=C/C(C)=C/C=C/C=C(C)/C=C/C=C(C)/C=C/C(=O)O)/C=C/C(=O)O
- mutagenic call (Test System: AMES SALMONELLA TYPHIMURIUM, Strain/Indicator: TA97, Metabolic Activation: NONE, Method: PREINCUBATION): inactive; negative
- mutagenic call (Test System: AMES SALMONELLA TYPHIMURIUM, Strain/Indicator: TA97, Metabolic Activation: S-9, Method: PREINCUBATION): inactive; negative
- mutagenic call [3]: inactive; negative
- mutagenic call (Test System: AMES SALMONELLA TYPHIMURIUM, Strain/Indicator: TA102, Metabolic Activation: S-9, Method: PREINCUBATION): inactive; negative

SMILES: Oc1ccc2c(c1)OCO2
- mutagenic call (Test System: AMES SALMONELLA TYPHIMURIUM, Strain/Indicator: TA98, Metabolic Activation: HAMSTER, LIVER, S-9, AROCLOR 1254, Method: STANDARD PLATE): inactive; negative
- mutagenic call [4]: inactive; negative
- mutagenic call (Test System: AMES SALMONELLA TYPHIMURIUM, Strain/Indicator: TA98, Metabolic Activation: RAT, LIVER, S-9, AROCLOR 1254, Method: STANDARD PLATE): inactive; negative
- mutagenic call (Test System: AMES SALMONELLA TYPHIMURIUM, Strain/Indicator: TA100, Metabolic Activation: HAMSTER, LIVER, S-9, AROCLOR 1254, Method: STANDARD PLATE): inactive; negative
- mutagenic call [5]: inactive; negative
- mutagenic call (Test System: AMES SALMONELLA TYPHIMURIUM, Strain/Indicator: TA100, Metabolic Activation: RAT, LIVER, S-9, AROCLOR 1254, Method: STANDARD PLATE): inactive; negative
- mutagenic call (Test System: AMES SALMONELLA TYPHIMURIUM, Strain/Indicator: TA1535, Metabolic Activation: HAMSTER, LIVER, S-9, AROCLOR 1254, Method: STANDARD PLATE): inactive; negative
- mutagenic call [6]: inactive; negative
- mutagenic call (Test System: AMES SALMONELLA TYPHIMURIUM, Strain/Indicator: TA1535, Metabolic Activation: RAT, LIVER, S-9, AROCLOR 1254, Method: STANDARD PLATE): inactive; negative
- mutagenic call (Test System: AMES SALMONELLA TYPHIMURIUM, Strain/Indicator: TA1537, Metabolic Activation: HAMSTER, LIVER, S-9, AROCLOR 1254, Method: STANDARD PLATE): inactive; negative
- mutagenic call [7]: inactive; negative
- mutagenic call (Test System: AMES SALMONELLA TYPHIMURIUM, Strain/Indicator: TA1537, Metabolic Activation: RAT, LIVER, S-9, AROCLOR 1254, Method: STANDARD PLATE): inactive; negative
- mutagenic call (Test System: AMES SALMONELLA TYPHIMURIUM, Strain/Indicator: TA1538, Metabolic Activation: HAMSTER, LIVER, S-9, AROCLOR 1254, Method: STANDARD PLATE): inactive; negative
- mutagenic call (Test System: AMES SALMONELLA TYPHIMURIUM, Strain/Indicator: TA1538, Metabolic Activation: NONE, Method: STANDARD PLATE): inactive; negative
- mutagenic call (Test System: AMES SALMONELLA TYPHIMURIUM, Strain/Indicator: TA1538, Metabolic Activation: RAT, LIVER, S-9, AROCLOR 1254, Method: STANDARD PLATE): inactive; negative
- mutagenic call (Test System: MOUSE LYMPHOMA, Strain/Indicator: L5178Y (TK+/TK-), Metabolic Activation: NONE, Method: SUSPENSION/PLATE): active; positive
- mutagenic call (Test System: MOUSE LYMPHOMA, Strain/Indicator: L5178Y (TK+/TK-), Metabolic Activation: RAT, LIVER, S-9, AROCLOR 1254, Method: SUSPENSION/PLATE): active; positive
- mutagenic call (Test System: Mouse lymphoma, Strain/Indicator: L5178Y (tk+/tk-), Metabolic Activation: None, Method: Suspension/plate): active; positive
- mutagenic call (Test System: Mouse lymphoma, Strain/Indicator: L5178Y (tk+/tk-), Metabolic Activation: Rat, Liver, S-9, Aroclor 1254, Method: Suspension/plate): active; positive

SMILES: Nc1snc2ccc(Cl)cc12
- mutagenic call [4]: inactive; negative
- mutagenic call (Test System: AMES SALMONELLA TYPHIMURIUM, Strain/Indicator: TA98, Metabolic Activation: S-9, Method: STANDARD PLATE): active; positive
- mutagenic call [5]: inactive; negative
- mutagenic call (Test System: AMES SALMONELLA TYPHIMURIUM, Strain/Indicator: TA100, Metabolic Activation: S-9, Method: STANDARD PLATE): active; positive
- mutagenic call [6]: inactive; negative
- mutagenic call (Test System: AMES SALMONELLA TYPHIMURIUM, Strain/Indicator: TA1535, Metabolic Activation: S-9, Method: STANDARD PLATE): inactive; negative
- mutagenic call [7]: inactive; negative
- mutagenic call (Test System: AMES SALMONELLA TYPHIMURIUM, Strain/Indicator: TA1537, Metabolic Activation: S-9, Method: STANDARD PLATE): active; positive
